Test results from patent US20240287042A1, “NOVEL COMPOUND HAVING INHIBITORY ACTIVITY AGAINST PENDRIN, AND PHARMACEUTICAL USES THEREOF” (UIF (University Industry Foundation), Yonsei University, priority 2021, published 2024).

What was measured:
human wild-type pendrin = molecular target: T1, human wild-type pendrin (Homo sapiens, UniProt O43511); assay: Pendrin Cl−/SCN− exchange activity in human alveolar epithelial cells (hAEC) overexpressing pendrin; type: cell-based; conditions: 0.3 μM to 30 μM, read-out: IC50 of human wild-type pendrin-mediated Cl−/SCN− exchange activity
T1 construct: expressed in transfected cells; host or cells: human alveolar epithelial cells (hAEC) overexpressing pendrin
T1 sequence (O43511 1-780): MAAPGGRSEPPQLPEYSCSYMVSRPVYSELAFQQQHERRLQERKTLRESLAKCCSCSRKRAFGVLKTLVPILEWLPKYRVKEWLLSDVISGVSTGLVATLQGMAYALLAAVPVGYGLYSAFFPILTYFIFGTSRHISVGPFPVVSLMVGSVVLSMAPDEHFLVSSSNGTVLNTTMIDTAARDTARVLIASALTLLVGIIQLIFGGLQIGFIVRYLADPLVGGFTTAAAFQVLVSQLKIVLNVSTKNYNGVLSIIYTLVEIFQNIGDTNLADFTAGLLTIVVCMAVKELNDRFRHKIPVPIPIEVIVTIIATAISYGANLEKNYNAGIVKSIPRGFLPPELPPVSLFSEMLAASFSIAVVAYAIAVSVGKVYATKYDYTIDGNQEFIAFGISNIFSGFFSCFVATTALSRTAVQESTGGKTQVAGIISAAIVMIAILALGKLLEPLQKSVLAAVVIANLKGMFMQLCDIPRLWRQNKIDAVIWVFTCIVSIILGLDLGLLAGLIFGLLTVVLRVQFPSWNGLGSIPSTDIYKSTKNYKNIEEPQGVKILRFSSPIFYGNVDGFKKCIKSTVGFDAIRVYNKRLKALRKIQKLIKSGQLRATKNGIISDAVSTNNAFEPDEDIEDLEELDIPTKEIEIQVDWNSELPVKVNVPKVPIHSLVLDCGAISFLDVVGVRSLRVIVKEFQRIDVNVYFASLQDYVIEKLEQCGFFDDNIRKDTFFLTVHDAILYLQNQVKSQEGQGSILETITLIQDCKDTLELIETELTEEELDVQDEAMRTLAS
Description: In FIG. 13a, human alveolar epithelial cells (hAEC) overexpressing pendrin were treated with YPI-A4948 as a novel pendrin inhibitor from 0.3 μM to 30 μM, and the Cl^−/SCN^− exchange ability of SLC26A4 was measured by the change in YFP fluorescence when compared to before YPI-A4948 treatment. The IC50 of human wild-type pendrin-mediated Cl^−/SCN^− exchange activity was confirmed to be 0.9 μM.

SLC26A4 (pendrin) = assay: Pendrin protein and mRNA expression after LPS in hAEC; type: cell-based, human
[1] = tested on: LPS-induced lung injury model; assay: LPS-induced lung injury model in mice, i.v. treatment after LPS; type: in vivo, C57BL/6N mice
Description: Lipid polysaccharide (LPS, 200 μg/head) dissolved in 50 μL PBS was injected intranasally into C57BL/6N mice. YPI-A4948 (1, 10 μg/kg) was administered intravenously twice in total at 6 hours and 12 hours after LPS injection, and the mice were euthanized at 24 hours after LPS inhalation to remove the lungs. Immune cell recruitment was confirmed through bronchoalveolar lavage fluid (BALF) obtained by injecting 1 mL of PBS into the removed lung and then re-extracting the PBS. Lung injury parameters were measured by ELISA after lysing lung tissue. The expression level of pendrin protein was confirmed by Western blot, and this was digitalized and measured using a shade measuring instrument (mean±SEM, n=3 per group). Pendrin mRNA levels were determined by real-time quantitative PCR in extracted lung tissue (mean±SEM, n=3 per group). IL-10, MIP-2, IL-6, and TNF-α levels were measured by ELISA in lung tissue lysates (mean±SEM n=4-7 mice per group).

[2] = tested on: LPS-induced lung injury mouse model; assay: LPS-induced lung injury mouse model with anion supply; type: in vivo, mice; conditions: 5 μg/kg i.v. once 6 h after LPS
Description: Specifically, lipid polysaccharide (LPS, 200 μg/head) dissolved in 50 μL PBS was injected intranasally, and 6 hours after LPS inhalation, YPI-A4948 was intravenously administered once at 5 μg/kg, and at the same time, OH^−, HCO3^−, and SCN^− anions were administered intranasally, respectively. The mice were euthanized 24 hours after LPS inhalation to remove the lungs. Then, lung tissue H&E staining was performed to observe the degree of lung injury, and bronchoalveolar lavage fluid (BALF) was extracted in the same manner as in Example 12, and cytopathology staining using BALF total cell count, BALF protein concentration level, and Diff-Quik Stain was performed. Data provided are mean±SEM (n=3-5 per group), scale bar is 50 μm for H&E staining and cytopathology staining imaged at 400×.

[3] = i.v. 1, 10 μg/kg at 6 and 12 h after LPS, vs LPS only

IC50 (human wild-type pendrin): 900 nM
Compound: Cc1ccc2[nH]c(C(=O)O)c(CC(=O)N3CCN(c4c(C)cccc4Cl)CC3)c2c1 [YPI-A4948, 3-(2-(4-(2-Chloro-6-methylphenyl)piperazin-1-yl)-2-oxoethyl)-5-methyl-1H-indole-2-carboxylic acid]
Protein expression level of SLC26A4 (pendrin) (SLC26A4 (pendrin); LPS treatment after YPI-A4948 pretreatment in vitro): inhibited by YPI-A4948 in a dose-dependent manner
mRNA expression level of pendrin (SLC26A4 (pendrin); increased by LPS in vitro): not statistically significantly reduced
Lung inflammatory cytokine IL-6 ([1]; ELISA in lung tissue lysates): statistically significantly reduced
Lung inflammatory cytokine IL-10 ([1]; ELISA in lung tissue lysates): statistically significantly reduced
Lung inflammatory cytokine MIP-2 ([1]; ELISA in lung tissue lysates): statistically significantly reduced
Lung inflammatory cytokine TNF-α ([1]; ELISA in lung tissue lysates): statistically significantly reduced
BALF protein concentration [1, 3]: significantly reduced
BALF total cell counts [1, 3]: significantly reduced
Level of pendrin mRNA in lung [1, 3]: significantly reduced
Level of pendrin protein in lung [1, 3]: significantly reduced
Lung injury [2]: reduced
Lung injury improvement effect when OH−, HCO3−, SCN− anions are supplied intranasally [2]: weakened only by SCN^−
